Read-outs that look alike come from different tables or passages of the source.
Assays:
SHP2 = SHP2 (Homo sapiens (Human), UniProt Q06124); assay: SHP2 Biochemical Assay (DiFMUP conversion, pIRS1-activated); settings: Table 19; head prints unit as "-M"
Summary of the method: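 Human SHP2 (10 pM) pre-incubated 30 min with compound and […] pIRS1 activating peptide, then 50 μM DiFMUP added; buffer 25 mM Bis-Tris propane pH 7.0, 150 mM NaCl, 5% DMSO. Fluorescence rate (ex 360/em 450 nm) over 30 min; IC50 by four-parameter fit, averaged across experiments.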

[1] = system: pERK (phospho-p44/42 ERK) in HCC827 cells; assay: Cellular pERK Inhibition Assay, Method A (In-Cell Western); type: cell-based; settings: Table 19, head prints unit as "-M", read-out: pERK (IC50) Method A
Summary of the method: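 HCC827 cells in RPMI/10% FBS were treated with compounds in serum-free medium (0.2% DMSO final) at 37 °C for the indicated time, in quadruplicate. Fixed cells were immunostained for phospho-p44/42 ERK and read by infrared imaging. Blank-subtracted signal was expressed as % of DMSO control; IC50 from four-parameter logistic fit, averaged across experiments.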

SHP2, sequence (Q06124 whole entry): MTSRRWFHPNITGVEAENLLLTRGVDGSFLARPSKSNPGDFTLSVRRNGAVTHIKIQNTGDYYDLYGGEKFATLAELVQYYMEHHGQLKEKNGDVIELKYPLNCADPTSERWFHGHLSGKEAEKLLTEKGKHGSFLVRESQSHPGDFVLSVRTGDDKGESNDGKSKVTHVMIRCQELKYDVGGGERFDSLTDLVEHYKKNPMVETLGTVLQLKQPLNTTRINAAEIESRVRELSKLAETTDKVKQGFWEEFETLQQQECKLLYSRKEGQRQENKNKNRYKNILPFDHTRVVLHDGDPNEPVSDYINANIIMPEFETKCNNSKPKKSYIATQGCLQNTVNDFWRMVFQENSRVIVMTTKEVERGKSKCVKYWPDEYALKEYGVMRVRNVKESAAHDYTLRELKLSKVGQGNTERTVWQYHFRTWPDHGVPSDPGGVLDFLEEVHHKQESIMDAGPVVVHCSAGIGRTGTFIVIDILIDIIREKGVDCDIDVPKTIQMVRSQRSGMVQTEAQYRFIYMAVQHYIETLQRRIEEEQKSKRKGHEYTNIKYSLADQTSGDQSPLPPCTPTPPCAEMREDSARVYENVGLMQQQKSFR

SMILES | IC50 (SHP2) | IC50 ([1]; Homo sapiens) | IC50 [1]
Cn1cc2c(Cl)c(-c3c[nH]c4nc(N5CC6CC6(N)C5)n(C)c(=O)c34)ccc2n1 (centres unmarked) [Example 61, 2-(1-amino-3-azabicyclo[3.1.0]hexan-3-yl)-5-(4-chloro-2-methyl-2H-indazol-5-yl)-3-methyl-3,7-dihydro-4H-pyrrolo[2,3-d]pyrimidin-4-one] | 98 nM | 1800 nM | –
Cn1cc2c(Cl)c(-c3c[nH]c4nc(N5CC6C(N)C6C5)n(C)c(=O)c34)ccc2n1 (centres unmarked) [Example 62, 2-(6-amino-3-azabicyclo[3.1.0]hexan-3-yl)-5-(4-chloro-2-methyl-2H-indazol-5-yl)-3-methyl-3,7-dihydro-4H-pyrrolo[2,3-d]pyrimidin-4-one] | 23 nM | 360 nM | –
Cn1cc2c(Cl)c(-c3c[nH]c4nc(N5CC[C@@H](CN)C5)n(C)c(=O)c34)ccc2n1 [Example 63, (S)-2-(3-(aminomethyl)pyrrolidin-1-yl)-5-(4-chloro-2-methyl-2H-indazol-5-yl)-3-methyl-3,7-dihydro-4H-pyrrolo[2,3-d]pyrimidin-4-one] | 110 nM | 4300 nM | –
COC1(CN)CCN(c2nc3[nH]cc(-c4ccc5nn(C)cc5c4Cl)c3c(=O)n2C)CC1 [Example 64, 2-(4-(aminomethyl)-4-methoxypiperidin-1-yl)-5-(4-chloro-2-methyl-2H-indazol-5-yl)-3-methyl-3,7-dihydro-4H-pyrrolo[2,3-d]pyrimidin-4-one] | 42 nM | 1500 nM | –
Cn1cc2c(Cl)c(-c3c[nH]c4nc(N5CCC(F)(CN)CC5)n(C)c(=O)c34)ccc2n1 [Example 65, 2-(4-(aminomethyl)-4-fluoropiperidin-1-yl)-5-(4-chloro-2-methyl-2H-indazol-5-yl)-3-methyl-3,7-dihydro-4H-pyrrolo[2,3-d]pyrimidin-4-one] | 33 nM | 430 nM | –
CCn1cc2c(Cl)c(-c3c[nH]c4nc(N5C6CCCC5CNC6)n(C)c(=O)c34)ccc2n1 [Example 66, 2-(3,9-diazabicyclo[3.3.1]nonan-9-yl)-5-(4-chloro-2-ethyl-2H-indazol-5-yl)-3-methyl-3,7-dihydro-4H-pyrrolo[2,3-d]pyrimidin-4-one] | 8.2 nM | 82 nM | –
Cn1cc2cc(-c3c[nH]c4nc(N5[C@@H]6CC[C@H]5C[C@@H](N)C6)n(C)c(=O)c34)ccc2n1 [Example 67, 2-(endo-3-amino-8-azabicyclo[3.2.1]octan-8-yl)-3-methyl-5-(2-methyl-2H-indazol-5-yl)-3,7-dihydro-4H-pyrrolo[2,3-d]pyrimidin-4-one] | 340 nM | 3400 nM | –
Cc1nc2ccc(-c3c[nH]c4nc(N5[C@@H]6CC[C@H]5C[C@@H](N)C6)n(C)c(=O)c34)c(Cl)c2o1 [Example 68, 2-(endo-3-amino-8-azabicyclo[3.2.1]octan-8-yl)-5-(7-chloro-2-methylbenzo[d]oxazol-6-yl)-3-methyl-3,7-dihydro-4H-pyrrolo[2,3-d]pyrimidin-4-one] | 41 nM | 670 nM | –
CCc1nc2ccc(-c3c[nH]c4nc(N5[C@@H]6CC[C@H]5C[C@@H](N)C6)n(C)c(=O)c34)c(Cl)c2o1 [Example 69, 2-(endo-3-amino-8-azabicyclo[3.2.1]octan-8-yl)-5-(7-chloro-2-ethylbenzo[d]oxazol-6-yl)-3-methyl-3,7-dihydro-4H-pyrrolo[2,3-d]pyrimidin-4-one] | 120 nM | 3000 nM | –
Cn1cc2c(F)c(-c3c[nH]c4nc(N5[C@@H]6CC[C@H]5C[C@@H](N)C6)n(C)c(=O)c34)ccc2n1 [Example 70, 2-(endo-3-amino-8-azabicyclo[3.2.1]octan-8-yl)-5-(4-fluoro-2-methyl-2H-indazol-5-yl)-3-methyl-3,7-dihydro-4H-pyrrolo[2,3-d]pyrimidin-4-one] | 29 nM | 190 nM | –
Cn1c(N2C3CCC2CC(N)C3)nc2[nH]cc(-c3cc4nnn(C)c4c(F)c3F)c2c1=O (stereo not drawn) [Example 71, 2-(endo-3-amino-8-azabicyclo[3.2.1]octan-8-yl)-5-(6,7-difluoro-1-methyl-1H-benzo[d][1,2,3]triazol-5-yl)-3-methyl-3,7-dihydro-4H-pyrrolo[2,3-d]pyrimidin-4-one] | 260 nM | – | 5000 nM
Cn1cc2cc(-c3c[nH]c4nc(N5[C@@H]6CC[C@H]5C[C@@H](N)C6)n(C)c(=O)c34)c(F)cc2n1 [Example 72, 2-(endo-3-amino-8-azabicyclo[3.2.1]octan-8-yl)-5-(6-fluoro-2-methyl-2H-indazol-5-yl)-3-methyl-3,7-dihydro-4H-pyrrolo[2,3-d]pyrimidin-4-one] | 99 nM | 1900 nM | –
COc1c(-c2c[nH]c3nc(N4C5CCC4CC(N)C5)n(C)c(=O)c23)ccc2nn(C)cc12 (stereo not drawn) [Example 73, 2-(endo-3-amino-8-azabicyclo[3.2.1]octan-8-yl)-5-(4-methoxy-2-methyl-2H-indazol-5-yl)-3-methyl-3,7-dihydro-4H-pyrrolo[2,3-d]pyrimidin-4-one] | 870 nM | – | > 10000 nM
Cn1c(N2[C@@H]3CC[C@H]2C[C@@H](N)C3)nc2[nH]cc(-c3ccc4nnn(C)c4c3Cl)c2c1=O [Example 74, 2-(endo-3-amino-8-azabicyclo[3.2.1]octan-8-yl)-5-(7-chloro-1-methyl-1H-benzo[d][1,2,3]triazol-6-yl)-3-methyl-3,7-dihydro-4H-pyrrolo[2,3-d]pyrimidin-4-one] | 170 nM | 5400 nM | –
Cn1c(N2[C@@H]3CC[C@H]2C[C@@H](N)C3)nc2[nH]cc(-c3ccc4nn(CC(C)(C)O)cc4c3Cl)c2c1=O [Example 75, 2-(endo-3-amino-8-azabicyclo[3.2.1]octan-8-yl)-5-(4-chloro-2-(2-hydroxy-2-methylpropyl)-2H-indazol-5-yl)-3-methyl-3,7-dihydro-4H-pyrrolo[2,3-d]pyrimidin-4-one] | 28 nM | 2100 nM | –
Cc1cc(-c2c[nH]c3nc(N4[C@@H]5CC[C@H]4C[C@@H](N)C5)n(C)c(=O)c23)c(Cl)c2cn(C)nc12 [Example 76, 2-(endo-3-amino-8-azabicyclo[3.2.1]octan-8-yl)-5-(4-chloro-2,7-dimethyl-2H-indazol-5-yl)-3-methyl-3,7-dihydro-4H-pyrrolo[2,3-d]pyrimidin-4-one] | 31 nM | 180 nM | –
Cn1c(N2[C@@H]3CC[C@H]2C[C@@H](N)C3)nc2[nH]cc(-c3ccc4[nH]ncc4c3Cl)c2c1=O [Example 77] | 40 nM | 1900 nM | –
Cn1nc2ccc(-c3c[nH]c4nc(N5[C@@H]6CC[C@H]5C[C@@H](N)C6)n(C)c(=O)c34)c(Cl)c2c1Cl [Example 78, 2-(endo-3-amino-8-azabicyclo[3.2.1]octan-8-yl)-5-(3,4-dichloro-2-methyl-2H-indazol-5-yl)-3-methyl-3,7-dihydro-4H-pyrrolo[2,3-d]pyrimidin-4-one] | 6 nM | 130 nM | –
Cn1nc2ccc(-c3c[nH]c4nc(N5[C@@H]6CC[C@H]5C[C@@](C)(N)C6)n(C)c(=O)c34)c(Cl)c2c1Cl [Example 79, 2-(endo-3-amino-3-methyl-8-azabicyclo[3.2.1]octan-8-yl)-5-(3,4-dichloro-2-methyl-2H-indazol-5-yl)-3-methyl-3,7-dihydro-4H-pyrrolo[2,3-d]pyrimidin-4-one] | 5.5 nM | 160 nM | –
